# Measurements reported in patent publication US8067430B1, “Anti-HIV activity of the opioid antagonist naloxone” (University of South Florida, priority 2003, dated 2011).
# Where a name gives a salt, the structure may show the parent alone.
# What was measured:
# [1] = system: HIV-1 gp120 (external envelope glycoprotein); assay: Immunoblot (Western blot) of gp120 in lysates of HIV infected Supt 1 cells; format: cell-based, HIV-1MN
# Experimental: The expression of the essential HIV coat protein gp120 is measured by this technique. Western Blot analysis of gp120 detected with a murine anti-gp120 monoclonal antibody from HIV-1 infected cells treated with naloxone or AZT. HIV-MN infected Supt 1 cells treated will different molar concentrations of naloxone or AZT. Cells were lysed at 3 days after infection of the cells with cell free HIV-1MN and 100 μg of the lysate was loaded onto SDS-PAGE, transferred onto a Hybond ECL membrane and detected with an anti-gp120 monoclonal antibody. VC=viral control (infected cells with no drug treatment).
# 200TCID-50 per milliliter (tissue culture infectious dose) of HIV-MN cell free virus was used to infect 500,000/milliliter of a human T cell line (called SupTI) in the presence (at a range of concentrations) or absence (control) of naloxone-HC1/or AZT. The TCID-50 is an amount of virus which will infect 50% of non-infected target cells. The virus+cells+drugs (naloxone or AZT) were incubated at 37 degrees Celsius in an atmosphere of 5% carbon dioxide for three days. Cells were lysed by using a detergent 1% Triton-X100. This preparation was frozen in liquid nitrogen and thawed at 37 degrees Celsius for three cycles. The preparation was vortexed vigorously for 20 seconds at the end of each cycle. Samples were then stored at −80 degrees Celsius until analysis. […]
# [2] = system: GADPH; assay: RT-PCR control: expression of constitutive enzyme GADPH; format: cell-based, human; conditions: housekeeping gene control in RT-PCR
# Experimental: Total RNA from the preparations described above was used as a template for the generation of complementary DNA (cDNA). This was accomplished through the use of commercial RT-PCR kits (Gibco/BRL/Life Technologies, Inc., Rockville, Md.). The gene for the HIV gp41 transmembrane envelope glycoprotein was amplified from the RT products through the use of the following PCR cycling conditions: 94 degrees Celsius for 2 minutes followed by 52 degrees Celsius for 1 minutes then followed by 32 cycles at 94 degrees Celsius for 1 minutes, 52 degrees Celsius for 1 minutes, 72 degrees Celsius for […], then PCR extension was accomplished at 72 degrees Celsius for 10 minutes. The cycles were then ended by incubation at 4 degrees Celsius for 16 hours. […] (microliters) of PCR products were then loaded onto a 1.5% agarose gel containing 5 μg/ml of ethidium bromide. Bands in the gel with a size of 1.2 kb was considered to be gp41 based upon the primers used in the assay: Primer Sequences are as follows: Sense: 5 prime-[…]-3 prime (SEQ ID NO:1); Antisense 5 prime-[…]-3 prime (SEQ ID NO:2). In order to eliminate the possibility that the drug treatments could have an inhibitory effect on the RT used in the RT-PCR reaction rather than the HIV RT a constitutive (i.e. always expressed) enzyme called GADPH was used as a control. […]
# [3] = target: T1, recombinant RT (Human immunodeficiency virus type 1 group M subtype B, UniProt P04585); assay: Effect on recombinant RT; format: biochemical; conditions: different molar concentrations; protein not within the HIV viral lysate
# T1 construct: effect of different molar concentrations of naloxone on recombinant RT
# [4] = system: reverse transcriptase activity in HIV-MN infected Supt 1 cells; assay: RT activity assay on lysates of HIV-MN infected, drug-treated Supt 1 cells; format: cell-based
# Experimental: 200TCID-50 per milliliter (tissue culture infectious dose) of HIV-MN cell free virus was used to infect 500,000/milliliter of a human T cell line (called SupTI) in the presence (at a range of concentrations) or absence (control) of naloxone-HC1/or AZT. The TCID-50 is an amount of virus which will infect 50% of non-infected target cells. The virus+cells+drugs (naloxone or AZT) were incubated at 37 degrees Celsius in an atmosphere of 5% carbon dioxide for three days. Cells were lysed by using a detergent 1% Triton-X100. This preparation was frozen in liquid nitrogen and thawed at 37 degrees Celsius for three cycles. The preparation was vortexed vigorously for 20 seconds at the end of each cycle. Samples were then stored at −80 degrees Celsius until analysis. Total RNA from the samples were prepared by using the Tri-reagent assay and aliquoted and stored at −80 degrees Celsius until RT-PCR (reverse transcriptase-polymerase chain reaction) analysis.
# A 96 well microplate was coated with 200 μl/well of a 40 mg/ml solution of polyA and incubated at room temperature overnight with rocking. […] The color reaction in the wells was measured spectrophotometrically. Color development was proportional to the amount of RT in the wells and quantitation was made based upon a standard curve of using recombinant RT. […]
# [5] = system: HIV gp41 transmembrane envelope glycoprotein RNA; assay: RT-PCR of gp41 RNA from HIV infected target cells; format: cell-based, HIV-MN; conditions: different molar concentrations, hydrochloride
# Excerpt: Total RNA from the preparations described above was used as a template for the generation of complementary DNA (cDNA). This was accomplished through the use of commercial RT-PCR kits (Gibco/BRL/Life Technologies, Inc., Rockville, Md.). […]
smiles,measurement,setting,value
"C=CCN1CC[C@]23c4c5ccc(O)c4O[C@H]2C(=O)CC[C@@]3(O)[C@H]1C5 [naloxone, naloxone hydrochloride]",expression of gp120 protein (Western blot),[1]; HIV infected lymphocytes,significantly depress expression
same,"inhibition of HIV as measured by gp120 expression, compared with AZT","[1]; equivalent molar concentrations, cells lysed 3 days after infection","as effective, or more effective, than equivalent molar concentrations of AZT"
same,effect of drug treatment on expression of GADPH,[2],No effect
same,effect on recombinant RT,[3],direct inhibitory effect on RT
same,inhibition of RT activity in HIV infected cells compared with AZT,[4]; identical molar dose range of AZT,at least as effective as AZT
same,RT activity in HIV-MN infected Supt 1 cells,"[4]; treatment dose increasing from 10^-11 to 10^-4 M, 3 days, vs no drug control",RT activity decreases
same,expression of RNA for envelope glycoprotein gp41 (RT-PCR),[5],inhibiting expression of RNA for the envelope glycoprotein gp41
same,expression of RNA for envelope glycoprotein gp41 (RT-PCR),[5]; listed as Naloxone,significantly depress expression
